This is an account of results in patent publication US20170233409A1, “TYPE IV SECRETION SYSTEM INHIBITORS” (priority 2016, published 2017).

For this experiment, the system named is type V secretion system-mediated release of the cytotoxin VacA. The class given is cell-based, H. pylori.

For the compound `O=C(O)[C@@H]1CSc2c(C3CC3)c(Cc3cccc4ccccc34)cc(=O)n21` [Compound C10, (3R)-8-cyclopropyl-7-(naphthalen-1-ylmethyl)-5-oxo-3,5-dihydro-2H-thiazolo[3,2-a]pyridine-3-carboxylic acid], the “type V secretion system-mediated release of VacA into cell culture supernatants” value is given as “did not impair”.

For the compound `COc1ccc(Cc2cc(=O)n3c(c2C2CC2)SC[C@H]3C(=O)O)c2ccccc12` [KSK85, (3R)-7-[(4-methoxynaphthalen-1-yl)methyl]-8-cyclopropyl-5-oxo-2,3-dihydro-5H-[1,3]thiazolo[3,2-a]pyridine-3-carboxylic acid], the “type V secretion system-mediated release of VacA into cell culture supernatants” value is “did not impair”.
